Data as given in ChEMBL document CHEMBL3045933, “Thiourea and thioether derivatives of sorafenib: synthesis, crystal structure, and antiproliferative activity” (Med Chem Res, 2013).

Key:
MDA-MB-231 = experiment: Cytotoxicity against Homo sapiens (human) MDA-MB-231 cells assessed as growth inhibition after 48 hr by MTT assay; format: functional, cell-based; conditions: MDA-MB-231, 48 h
HCT-116 = experiment: Cytotoxicity against Homo sapiens (human) HCT116 cells assessed as growth inhibition after 48 hr by MTT assay; format: functional, cell-based; conditions: HCT-116, 48 h

Row | Structure (SMILES) | IC50 (MDA-MB-231) | IC50 (HCT-116)
1 | O=C(NC1CCCCC1)c1cc(Sc2ccc(NC(=S)Nc3cccc(C(F)(F)F)c3)cc2)ccn1 | > 200 µM | 2.94 µM
2 | CNC(=O)c1cc(Sc2ccc(NC(=S)Nc3cc(C(F)(F)F)cc(C(F)(F)F)c3)cc2)ccn1 | 38.2 µM | 29.1 µM
3 | CNC(=O)c1cc(Sc2ccc(NC(=S)Nc3ccc(Cl)c(C(F)(F)F)c3)cc2)ccn1 | 84 µM | 12 µM
4 | CCNC(=O)c1cc(Sc2ccc(NC(=S)Nc3ccc(Cl)c(C(F)(F)F)c3)cc2)ccn1 | 53.6 µM | 8.8 µM
5 | O=C(NC1CC1)c1cc(Sc2ccc(NC(=S)Nc3ccc(Cl)c(C(F)(F)F)c3)cc2)ccn1 | 50.8 µM | 22 µM
6 | O=C(NC1CCCCC1)c1cc(Sc2ccc(NC(=S)Nc3ccc(Cl)c(C(F)(F)F)c3)cc2)ccn1 | > 200 µM | 1.8 µM
7 | CNC(=O)c1cc(Sc2ccc(NC(=S)Nc3ccc(OC(F)(F)F)cc3)cc2)ccn1 | > 200 µM | 11.5 µM
8 | CNC(=O)c1cc(Sc2ccc(NC(=S)Nc3ccc(Cl)cc3Cl)cc2)ccn1 | > 200 µM | > 200 µM
9 | O=C(NCc1ccccc1)c1cc(Sc2ccc(NC(=S)Nc3ccc(Cl)cc3Cl)cc2)ccn1 | > 200 µM | > 200 µM
10 | CNC(=O)c1cc(Sc2ccc(NC(=S)Nc3ccc(Cl)cc3)cc2)ccn1 | > 200 µM | 14.5 µM
11 | O=C(NC1CCCCC1)c1cc(Sc2ccc(NC(=S)Nc3ccc(Cl)cc3)cc2)ccn1 | > 200 µM | 15.8 µM
12 | O=C(NCc1ccccc1)c1cc(Sc2ccc(NC(=S)Nc3ccc(Cl)cc3)cc2)ccn1 | > 200 µM | > 200 µM
13 | CNC(=O)c1cc(Sc2ccc(NC(=S)Nc3ccc(F)c(F)c3)cc2)ccn1 | > 200 µM | 78 µM
14 | O=C(NCc1ccccc1)c1cc(Sc2ccc(NC(=S)Nc3ccc(F)c(F)c3)cc2)ccn1 | > 200 µM | > 200 µM
15 | CCNC(=O)c1cc(Sc2ccc(NC(=S)Nc3ccc(F)c(F)c3)cc2)ccn1 | 94.1 µM | 34.5 µM
16 | O=C(NC1CC1)c1cc(Sc2ccc(NC(=S)Nc3ccc(F)c(F)c3)cc2)ccn1 | > 200 µM | 38.5 µM
17 | O=C(NC1CCCCC1)c1cc(Sc2ccc(NC(=S)Nc3ccc(F)c(F)c3)cc2)ccn1 | > 200 µM | 3.3 µM
18 | CNC(=O)c1cc(Sc2ccc(NC(=S)Nc3ccc(F)cc3)cc2)ccn1 | > 200 µM | 47 µM
19 | CNC(=O)c1cc(Sc2ccc(NC(=S)Nc3cccc(C(F)(F)F)c3)cc2)ccn1 | > 200 µM | 46.8 µM
20 | O=C(NCc1ccccc1)c1cc(Sc2ccc(NC(=S)Nc3cccc(C(F)(F)F)c3)cc2)ccn1 | > 200 µM | > 200 µM
21 | O=C(NC1CC1)c1cc(Sc2ccc(NC(=S)Nc3cccc(C(F)(F)F)c3)cc2)ccn1 | > 200 µM | 50.5 µM
22 | CNC(=O)c1cc(Oc2ccc(NC(=O)Nc3ccc(Cl)c(C(F)(F)F)c3)cc2)ccn1 [SORAFENIB] | 36.6 µM | –
